How the values were obtained:
Experiment in all cases: Kinase profiling in a biochemical assay panel (mobility shift assays and ELISA), %-inhibition at 1 μM; selectivity entropy
[1] = biological target: panel of more than 300 wild-type and mutant kinases (313 kinase panel) (Homo sapiens, UniProt O96017); details: kinase CHK2; 1 μM compound
[2] = biological target: panel of more than 300 wild-type and mutant kinases (313 kinase panel) (Homo sapiens, UniProt P22455, N535K); details: kinase FGFR4(N535K); compound at 1 μM
[3] = biological target: T1, panel of more than 300 wild-type and mutant kinases (313 kinase panel) (Homo sapiens, UniProt P29322); details: kinase EPHA8; compound at 1 μM
T1 sequence (P29322 28-1005): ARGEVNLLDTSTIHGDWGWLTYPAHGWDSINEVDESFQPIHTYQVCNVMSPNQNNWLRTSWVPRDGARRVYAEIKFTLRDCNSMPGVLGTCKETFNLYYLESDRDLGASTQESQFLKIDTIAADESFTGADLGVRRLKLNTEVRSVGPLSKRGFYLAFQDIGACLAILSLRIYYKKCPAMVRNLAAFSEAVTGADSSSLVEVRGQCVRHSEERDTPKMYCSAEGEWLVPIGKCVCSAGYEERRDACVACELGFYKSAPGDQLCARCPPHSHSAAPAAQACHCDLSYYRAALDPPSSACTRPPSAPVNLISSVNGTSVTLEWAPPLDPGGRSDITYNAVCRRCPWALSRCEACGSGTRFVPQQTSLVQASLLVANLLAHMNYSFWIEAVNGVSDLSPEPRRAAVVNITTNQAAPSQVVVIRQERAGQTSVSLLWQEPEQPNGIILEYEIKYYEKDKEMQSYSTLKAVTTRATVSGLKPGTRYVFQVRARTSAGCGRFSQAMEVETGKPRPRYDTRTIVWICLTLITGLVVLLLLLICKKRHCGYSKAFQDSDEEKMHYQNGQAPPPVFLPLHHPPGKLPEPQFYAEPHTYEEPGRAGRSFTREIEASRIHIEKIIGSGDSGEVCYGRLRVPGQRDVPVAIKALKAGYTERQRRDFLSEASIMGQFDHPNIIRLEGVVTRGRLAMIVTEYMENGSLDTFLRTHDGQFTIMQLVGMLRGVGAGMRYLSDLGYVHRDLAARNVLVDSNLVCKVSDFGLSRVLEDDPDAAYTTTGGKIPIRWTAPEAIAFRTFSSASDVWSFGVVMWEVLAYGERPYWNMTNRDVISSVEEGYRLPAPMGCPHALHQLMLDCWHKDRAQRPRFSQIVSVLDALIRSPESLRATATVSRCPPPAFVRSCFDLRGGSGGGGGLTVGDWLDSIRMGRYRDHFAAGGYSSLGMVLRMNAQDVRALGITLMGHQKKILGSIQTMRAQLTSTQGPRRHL

[4] = biological target: panel of more than 300 wild-type and mutant kinases (313 kinase panel) (Homo sapiens, UniProt P42685); details: kinase FRK; compound at 1 μM
[5] = biological target: panel of more than 300 wild-type and mutant kinases (313 kinase panel) (Homo sapiens, UniProt P49761)
[6] = biological target: panel of more than 300 wild-type and mutant kinases (313 kinase panel) (Homo sapiens, UniProt P80192); details: kinase MLK1; 1 μM
[7] = biological target: panel of more than 300 wild-type and mutant kinases (313 kinase panel) (Homo sapiens, UniProt Q02750); details: kinase MAP2K1; compound at 1 μM
[8] = biological target: T2, panel of more than 300 wild-type and mutant kinases (313 kinase panel) (Homo sapiens, UniProt Q9NRA0); details: kinase SPHK2; 1 μM
T2 sequence (Q9NRA0 1-654): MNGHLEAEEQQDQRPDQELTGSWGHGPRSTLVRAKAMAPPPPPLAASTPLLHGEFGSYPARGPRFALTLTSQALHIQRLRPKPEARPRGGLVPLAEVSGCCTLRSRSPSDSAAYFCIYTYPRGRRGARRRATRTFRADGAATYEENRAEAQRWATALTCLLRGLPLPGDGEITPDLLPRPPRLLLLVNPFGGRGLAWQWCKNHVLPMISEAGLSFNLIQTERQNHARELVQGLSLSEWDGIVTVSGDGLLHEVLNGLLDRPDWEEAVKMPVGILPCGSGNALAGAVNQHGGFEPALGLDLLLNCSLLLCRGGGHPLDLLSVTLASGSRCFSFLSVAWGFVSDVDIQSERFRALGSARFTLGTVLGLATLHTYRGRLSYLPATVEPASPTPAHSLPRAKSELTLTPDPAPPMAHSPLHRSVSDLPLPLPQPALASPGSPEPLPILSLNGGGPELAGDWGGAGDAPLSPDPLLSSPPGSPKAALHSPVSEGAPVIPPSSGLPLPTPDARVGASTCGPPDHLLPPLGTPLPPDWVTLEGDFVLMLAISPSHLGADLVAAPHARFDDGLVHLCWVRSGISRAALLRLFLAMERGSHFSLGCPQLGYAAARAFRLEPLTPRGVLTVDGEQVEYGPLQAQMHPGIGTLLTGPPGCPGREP

[9] = biological target: panel of more than 300 wild-type and mutant kinases (313 kinase panel) (Homo sapiens, UniProt Q9P1W9); details: kinase PIM2; 1 μM
[10] = biological target: panel of more than 300 wild-type and mutant kinases (313 kinase panel) (Homo sapiens, UniProt Q9Y6M4); details: kinase CK1γ3; 1 μM compound
[11] = biological target: panel of more than 300 wild-type and mutant kinases (313 kinase panel) (Homo sapiens, UniProt O95819); details: kinase HGK; compound at 1 μM

Sequence of panel of more than 300 wild-type and mutant kinases (313 kinase panel) (Homo sapiens, UniProt P80192) (P80192 whole entry, change not shown): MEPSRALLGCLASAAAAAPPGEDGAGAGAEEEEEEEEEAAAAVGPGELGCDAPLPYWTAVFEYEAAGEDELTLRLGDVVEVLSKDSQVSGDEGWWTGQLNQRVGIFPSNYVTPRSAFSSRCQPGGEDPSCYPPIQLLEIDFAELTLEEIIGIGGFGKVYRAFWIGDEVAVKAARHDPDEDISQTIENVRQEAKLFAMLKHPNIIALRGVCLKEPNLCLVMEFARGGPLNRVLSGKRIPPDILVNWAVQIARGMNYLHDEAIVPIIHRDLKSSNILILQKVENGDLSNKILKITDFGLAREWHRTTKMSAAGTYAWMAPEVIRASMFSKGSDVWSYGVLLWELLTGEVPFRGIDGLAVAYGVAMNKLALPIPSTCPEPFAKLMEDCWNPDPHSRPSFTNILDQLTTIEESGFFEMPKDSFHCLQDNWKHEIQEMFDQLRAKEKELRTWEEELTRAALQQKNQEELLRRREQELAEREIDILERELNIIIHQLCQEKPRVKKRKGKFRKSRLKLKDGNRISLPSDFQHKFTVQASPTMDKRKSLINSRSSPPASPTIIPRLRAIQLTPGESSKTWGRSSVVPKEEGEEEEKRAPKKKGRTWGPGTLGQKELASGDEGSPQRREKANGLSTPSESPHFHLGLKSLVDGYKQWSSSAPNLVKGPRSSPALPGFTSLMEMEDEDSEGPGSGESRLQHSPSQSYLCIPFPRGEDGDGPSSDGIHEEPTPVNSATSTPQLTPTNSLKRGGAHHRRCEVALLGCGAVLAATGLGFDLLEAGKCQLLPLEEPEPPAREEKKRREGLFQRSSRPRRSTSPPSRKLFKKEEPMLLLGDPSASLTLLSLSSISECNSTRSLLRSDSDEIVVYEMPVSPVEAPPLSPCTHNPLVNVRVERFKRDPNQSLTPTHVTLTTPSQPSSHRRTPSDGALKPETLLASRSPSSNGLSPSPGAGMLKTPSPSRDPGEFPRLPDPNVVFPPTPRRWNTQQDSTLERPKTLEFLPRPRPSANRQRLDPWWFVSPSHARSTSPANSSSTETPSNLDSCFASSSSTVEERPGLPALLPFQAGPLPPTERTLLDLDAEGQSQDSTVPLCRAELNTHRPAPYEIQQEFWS
Sequence of panel of more than 300 wild-type and mutant kinases (313 kinase panel) (Homo sapiens, UniProt P49761) (P49761 whole entry, change not shown): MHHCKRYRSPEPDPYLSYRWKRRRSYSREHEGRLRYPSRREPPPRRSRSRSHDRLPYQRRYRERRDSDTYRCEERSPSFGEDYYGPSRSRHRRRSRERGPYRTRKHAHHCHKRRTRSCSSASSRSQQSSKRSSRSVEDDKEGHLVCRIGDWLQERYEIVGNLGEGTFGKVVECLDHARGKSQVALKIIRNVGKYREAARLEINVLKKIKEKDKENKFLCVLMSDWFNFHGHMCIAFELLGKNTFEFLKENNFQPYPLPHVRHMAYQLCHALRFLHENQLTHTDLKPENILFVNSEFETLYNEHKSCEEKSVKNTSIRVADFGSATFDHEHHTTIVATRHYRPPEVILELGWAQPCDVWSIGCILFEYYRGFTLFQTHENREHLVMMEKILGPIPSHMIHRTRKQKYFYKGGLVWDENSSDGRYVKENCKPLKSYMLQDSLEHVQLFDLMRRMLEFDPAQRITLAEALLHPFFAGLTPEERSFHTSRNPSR
Sequence of panel of more than 300 wild-type and mutant kinases (313 kinase panel) (Homo sapiens, UniProt P42685) (P42685 whole entry, change not shown): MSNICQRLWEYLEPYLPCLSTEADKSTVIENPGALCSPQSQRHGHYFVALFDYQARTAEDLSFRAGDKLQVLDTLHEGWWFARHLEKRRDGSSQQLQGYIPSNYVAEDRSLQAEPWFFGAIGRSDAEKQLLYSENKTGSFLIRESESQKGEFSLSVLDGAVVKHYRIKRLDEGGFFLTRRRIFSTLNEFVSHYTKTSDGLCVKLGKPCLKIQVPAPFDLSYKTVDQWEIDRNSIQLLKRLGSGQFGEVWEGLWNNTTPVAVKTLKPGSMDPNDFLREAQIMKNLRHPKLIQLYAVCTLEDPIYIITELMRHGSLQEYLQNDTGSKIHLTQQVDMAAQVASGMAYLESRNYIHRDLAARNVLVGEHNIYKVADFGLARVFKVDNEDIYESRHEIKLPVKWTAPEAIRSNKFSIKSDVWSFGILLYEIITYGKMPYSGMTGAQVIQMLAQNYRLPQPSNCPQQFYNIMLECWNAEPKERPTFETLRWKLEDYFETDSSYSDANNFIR
Sequence of panel of more than 300 wild-type and mutant kinases (313 kinase panel) (Homo sapiens, UniProt Q9Y6M4) (Q9Y6M4 whole entry, change not shown): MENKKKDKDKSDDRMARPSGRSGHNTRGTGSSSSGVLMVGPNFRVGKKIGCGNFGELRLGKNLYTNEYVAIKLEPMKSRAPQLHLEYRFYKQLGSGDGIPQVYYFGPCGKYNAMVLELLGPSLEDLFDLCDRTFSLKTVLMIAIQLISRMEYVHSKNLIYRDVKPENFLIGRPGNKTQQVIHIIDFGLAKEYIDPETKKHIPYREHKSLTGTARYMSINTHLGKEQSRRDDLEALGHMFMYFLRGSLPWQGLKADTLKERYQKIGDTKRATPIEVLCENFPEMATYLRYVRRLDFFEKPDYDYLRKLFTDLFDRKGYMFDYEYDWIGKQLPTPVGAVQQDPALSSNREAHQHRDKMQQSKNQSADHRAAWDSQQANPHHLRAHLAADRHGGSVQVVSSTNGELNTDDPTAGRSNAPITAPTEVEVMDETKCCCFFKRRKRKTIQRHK
Sequence of panel of more than 300 wild-type and mutant kinases (313 kinase panel) (Homo sapiens, UniProt P22455, N535K) (P22455 22-802 N535K): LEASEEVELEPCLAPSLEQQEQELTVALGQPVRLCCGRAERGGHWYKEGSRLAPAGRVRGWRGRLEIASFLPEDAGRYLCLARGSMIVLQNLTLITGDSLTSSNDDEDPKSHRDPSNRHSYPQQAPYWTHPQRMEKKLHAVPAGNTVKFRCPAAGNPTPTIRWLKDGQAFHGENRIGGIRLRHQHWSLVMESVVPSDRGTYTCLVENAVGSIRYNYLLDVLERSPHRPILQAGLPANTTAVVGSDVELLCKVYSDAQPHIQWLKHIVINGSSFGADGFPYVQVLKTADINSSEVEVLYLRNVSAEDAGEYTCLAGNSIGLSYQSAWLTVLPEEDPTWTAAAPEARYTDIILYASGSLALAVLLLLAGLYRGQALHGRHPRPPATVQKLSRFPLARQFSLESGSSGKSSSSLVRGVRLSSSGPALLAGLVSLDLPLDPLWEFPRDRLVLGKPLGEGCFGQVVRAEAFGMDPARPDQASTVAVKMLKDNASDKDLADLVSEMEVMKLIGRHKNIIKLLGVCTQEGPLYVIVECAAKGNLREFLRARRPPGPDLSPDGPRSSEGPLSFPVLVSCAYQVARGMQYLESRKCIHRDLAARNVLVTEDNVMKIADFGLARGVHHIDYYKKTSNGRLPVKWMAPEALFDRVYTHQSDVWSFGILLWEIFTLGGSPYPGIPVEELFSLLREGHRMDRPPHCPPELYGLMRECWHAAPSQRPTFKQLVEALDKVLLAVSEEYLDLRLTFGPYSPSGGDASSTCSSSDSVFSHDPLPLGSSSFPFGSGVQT

| Structure (SMILES) | %-inhibition, CHK2 [1] [%] | %-inhibition of FGFR4(N535K) [2] [%] | %-inhibition of EPHA8 [3] [%] | %-inhibition of FRK [4] [%] | %-inhibition of CLK3 ([5]; kinase CLK3, compound at 1 μM) [%] | %-inhibition of MLK1 [6] [%] | %-inhibition of MAP2K1 [7] [%] | %-inhibition of SPHK2 [8] [%] | %-inhibition of PIM2 [9] [%] | %-inhibition, CK1γ3 [10] [%] | %-inhibition of HGK [11] [%] | %-inhibition of CLK3 ([5]; 1 µM) [%] |
| --- | --- | --- | --- | --- | --- | --- | --- | --- | --- | --- | --- | --- |
| C[C@@H](Oc1cc(-c2cnn(C3CCNCC3)c2)cnc1N)c1c(Cl)ccc(F)c1Cl [crizotinib] | 9 | 6.5 | 82 | 26 | -5 | 2.82 | 0.819 | 8 | -5.28 | 4 | – | – |
| CO[C@H]1C[C@@H]2CC[C@@H](C)[C@@](O)(O2)C(=O)C(=O)N2CCCC[C@H]2C(=O)O[C@H]([C@H](C)C[C@@H]2CC[C@@H](OCCO)[C@H](OC)C2)CC(=O)[C@H](C)/C=C(\C)[C@@H](O)[C@@H](OC)C(=O)[C@H](C)C[C@H](C)/C=C/C=C/C=C/1C [everolimus] | -37 | 9 | -3.63 | 1.26 | -9 | 5 | 7.5 | 1.25 | -7 | -13 | 0.896 | – |
| O=S(=O)(c1cccc2cnccc12)N1CCCNCC1 [fasudil] | 4 | 0.156 | -10 | -3 | -0.753 | 3.31 | 5.3 | -21 | -1.66 | -4 | -1.82 | – |
| CNC(=O)c1cc(Oc2ccc(NC(=O)Nc3ccc(Cl)c(C(F)(F)F)c3)c(F)c2)ccn1 [regorafenib] | -2.11 | 62 | 95 | 90 | -15 | -7 | -8.57 | -3.2 | -9 | -2.14 | 53 | – |
| N#CC[C@H](C1CCCC1)n1cc(-c2ncnc3[nH]ccc23)cn1 [ruxolitinib] | 3.64 | 4.48 | 0.379 | 7 | – | 53 | 11 | 6 | -4 | 4.6 | 1.09 | -2.14 |
| CO[C@H]1C[C@@H]2CC[C@@H](C)[C@@](O)(O2)C(=O)C(=O)N2CCCC[C@H]2C(=O)O[C@H]([C@H](C)C[C@@H]2CC[C@@H](OC(=O)C(C)(CO)CO)[C@H](OC)C2)CC(=O)[C@H](C)/C=C(\C)[C@@H](O)[C@@H](OC)C(=O)[C@H](C)C[C@H](C)/C=C/C=C/C=C/1C [temsirolimus] | -3.45 | 9 | -6.55 | -11 | -3 | 7.48 | 0.452 | 2.77 | -6 | -1 | -0.299 | – |
| COc1cc2c(Nc3ccc(Br)cc3F)ncnc2cc1OCC1CCN(C)CC1 [vandetanib] | 57 | 81 | 98 | 79 | -15 | 42 | 10 | 5.7 | -6.49 | 2.66 | 69 | – |
| CCCS(=O)(=O)Nc1ccc(F)c(C(=O)c2c[nH]c3ncc(-c4ccc(Cl)cc4)cc23)c1F [vemurafenib] | 6.32 | 9 | 7 | 62 | -14 | 10 | 18 | 8 | -2 | 2.14 | 26 | – |

Reference: publication PMC3961306, “Comparison of the Cancer Gene Targeting and Biochemical Selectivities of All Targeted Kinase Inhibitors Approved for Clinical Use” (PLoS ONE, 2014)
